These results are taken from publication PMC3281083, “Impact of the Herbal Medicine Sophora flavescens on the Oral Pharmacokinetics of Indinavir in Rats: The Involvement of CYP3A and P-Glycoprotein” (PLoS ONE, 2012).

As usually defined, the CL/F is the apparent clearance, not corrected for the fraction that reaches the circulation. Usually Cmax stands for the highest concentration seen after dosing.

Series [1] can be described thus: Multiple-dose oral pharmacokinetics of indinavir (plasma) with co-administered Sophora preparations. The format is in vivo, Male Wistar rats. The following applies: male, Wistar, rat, 40 mg/kg; for AUC(0-inf) / CL/F / Cmax / Tmax: po; for AUC(0-inf): read-out: AUC0-∞ of indinavir. Here is the method:
Thirty rats were randomly designated as vehicle control, low-dose and high-dose Sophora treatment groups (ten rats in each group). A separate experiment was performed using eighteen rats designated as vehicle control, oxymatrine capsule and Sophora EA fraction groups (six rats in each group). […] Indinavir from […]® capsule (Merck & CO. Inc., Whitehouse Station, NJ, USA) was dissolved in 50 mM citric acid, and the oxymatrine capsule contents were dissolved in distilled water. […] The treatments were given twice a day (9 a.m. and 7 p.m.) for 7 consecutive days. The dosages were designed on the basis of clinical doses in human. The daily dose of S. flavescens recommended by the Chinese Pharmacopoeia is 4.5-9 g of raw herb per day. […] Taking the low and high ends of these dose ranges, and using a conversion based on the body-surface-area ratio between rats and human, an animal dose range of 0.45-1.8 g/kg/day (raw herb equivalent) was estimated for experimental rats. […] Plasma was obtained by centrifugation at 7,000× g for 15 min at 4°C and frozen at -80°C prior to analysis. […] Organ tissues, including liver and intestine, were isolated, rinsed with saline, blotted dried, snap-frozen in liquid nitrogen, and stored at -80°C until use. […] Midazolam was used as the internal standard. […] The residues were reconstituted with 200 μL of methanol-water (v/v, 1∶1) solution. The faeces were homogenized in about 4-fold volume of distilled water. The homogenates were extracted with equal volume of acetonitrile. After centrifugation, 1 mL of the supernatant was transferred to a glass tube, and was subsequently subjected to addition of midazolam, alkalization, extraction with ethyl acetate, drying and reconstitution. All reconstituted samples (60 μL) were separated on a Prevail C18 column (250 mm×4.6 mm […]) by an Agilent 1100 HPLC system (Agilent Technologies, Santa Clara, CA, USA). The flow rate was 0.8 mL/min. […] The effluent was introduced to APCI-MS (Agilent 1100 series LC/MSD Trap SL system, Santa Clara, CA, USA) with positive detection mode. […] Extract ion chromatograms at m/z 614 (indinavir) and m/z 326 (midazolam) were used for quantification (Figure S1). Quantification of indinavir was performed on six levels of standards in blank plasma or faeces homogenate. […] The recovery of the analyte ranged from 80% to 90%. […] The area under the plasma concentration-time curves from zero to infinity (AUC0-∞) was calculated by the trapezoidal rules. Clearance (CL) was calculated by the equation (F×Dose)/AUC0-∞, where F is the fraction of dose available in the systemic circulation. Peak plasma concentration (Cmax) and the time when it occurred (T max) were derived directly from the curves. Statistical differences were determined by unpaired Student's t test or one-way analysis of variance (one-way ANOVA) followed by Dunnett's post test. All tests were two-tailed and the significance was set at P<0.05.

On the set-up of series [2]: method as in PMID 10604964, PMID 10497146. The following applies: rats; cited from earlier work.
Details of series [3]: method as in PMID 15771225. The settings on record: low solubility/high permeability/extensive metabolism; cited from earlier work.
Setting [4] is: indinavir 40 mg/kg orally, multiple dosage, with EA fraction 0.164 g/kg/day, mean ± S.E.M.
[5] abbreviates: indinavir 40 mg/kg orally, multiple dosage, with Oxymatrine (capsule) 90 mg/kg/day, mean ± S.E.M.
The mark [6] stands for this setting: indinavir 40 mg/kg orally, multiple dosage, with Sophora extract 0.316 g/kg/day, mean ± S.E.M.
The mark [7] stands for this setting: indinavir 40 mg/kg orally, multiple dosage, with Sophora extract 1.26 g/kg/day, mean ± S.E.M.
Setting [8] is: indinavir 40 mg/kg orally, multiple dosage, with vehicle control, mean ± S.E.M.

The structures appear in SMILES notation. Where two headings read alike, the source gives them in different places.

Regarding `CC(C)(C)NC(=O)[C@@H]1CN(Cc2cccnc2)CCN1C[C@@H](O)C[C@@H](Cc1ccccc1)C(=O)N[C@H]1c2ccccc2C[C@H]1O` [indinavir], the C0 in series [1] (oral, day 8, before last indinavir dose, detectable, below limit of quantification, read-out: Plasma indinavir concentration at time zero) is less than 50 ng/mL. The AUC(0-inf) in series [1] (indinavir 40 mg/kg orally twice a day for 7 days, last dose day 8, with vehicle control (1.5% Tween 80), mean ± S.E.M.) was 16100 ± 990 ng·h/mL; in series [1] (setting [4]), 12300 ± 1310 ng·h/mL; in series [1] (setting [5]) it was 5290 ± 1110 ng·h/mL; in series [1] (setting [6]) it was 7230 ± 870 ng·h/mL; in series [1] (setting [7]), 2780 ± 610 ng·h/mL. The apparent clearance (CL/F) was 57.6 mL/min/kg in series [1] (setting [4]); 159 mL/min/kg in series [1] (setting [5]); 101 mL/min/kg in series [1] (setting [6]); 316 mL/min/kg in series [1] (setting [7]); 42.8 mL/min/kg in series [1] (setting [8]). The Cmax worked out at 8410 ± 860 ng/mL in series [1] (setting [4]); 4970 ± 810 ng/mL in series [1] (setting [5]); 7170 ± 690 ng/mL in series [1] (setting [6]); 3090 ± 1080 ng/mL in series [1] (setting [7]); 11500 ± 670 ng/mL in series [1] (setting [8]). Further, the Tmax was 40.2 ± 9 min in series [1] (indinavir 40 mg/kg orally, multiple dosage, with EA fraction 0.164 g/kg/day, mean ± S.E.M., read-out: T max of indinavir); 25.2 ± 7.2 min in series [1] (indinavir 40 mg/kg orally, multiple dosage, with Oxymatrine (capsule) 90 mg/kg/day, mean ± S.E.M., read-out: T max of indinavir); 37.2 ± 7.2 min in series [1] (indinavir 40 mg/kg orally, multiple dosage, with Sophora extract 0.316 g/kg/day, mean ± S.E.M., read-out: T max of indinavir); 30 ± 11.4 min in series [1] (indinavir 40 mg/kg orally, multiple dosage, with Sophora extract 1.26 g/kg/day, mean ± S.E.M., read-out: T max of indinavir); 30 ± 6 min in series [1] (indinavir 40 mg/kg orally, multiple dosage, with vehicle control, mean ± S.E.M., read-out: T max of indinavir); 30 to 37 min in series [1] (oral, read-out: T max of indinavir determined in our study). Also, the Oral bioavailability in series [2] was 26%. Further, in series [3], the “Metabolic (drug disposition) class” value is given as “Class 2”.
